Read-outs that look alike come from different tables or passages of the source.
Columns and labels:
[1] = 3H-thymidine incorporation toxicity assay on ConA-stimulated uninfected bovine PBMC (CC50); conditions: bovine
Method: (§1) All the MMV compounds were initially tested for inhibitory activity on the growth of F100TpM, a bovine lymphocyte cell line infected by T. parva. […] All compounds were tested in triplicate.
(§2) The radiolabeled precursor ^3H-thymidine is incorporated into DNA strands during cell replication and radioisotope incorporation is often used as a measure of cell proliferation.
(§3) IC50 values were calculated using the Graph Pad Prism 7 software (GraphPad Software, Inc., La Jolla, CA), and average values of radio-isotope incorporation in wells with and without compound on the growth of F100TpM cells. The CC50 values were calculated using ^3H-thymidine incorporation values determined on the growth of PBMC stimulated with ConA. The therapeutic index of a compound was calculated by dividing the CC50 value with the IC50 value.

[2] = tested on: F100TpM, a bovine lymphocyte cell line infected by T. parva; experiment: 3H-thymidine incorporation growth assay on F100TpM cells (screen at 1 μM and IC50 titration); conditions: for TI (CC50/IC50), therapeutic index: CC50 on Con A blasts divided by IC50 on F100TpM;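 for all read-outs here: growth inhibition compared against wells lacking compound, run in triplicate, and CC50 derived from 3H-thymidine uptake by PBMC stimulated with ConA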
Method: as §1, §2, §3

[3] = tested on: P. falciparum 3D7 asexual blood stage; conditions: cited from earlier work
[4] = tested on: bovine PBMC stimulated with ConA (Con A blasts)
Method: as §1, §2, §3

[5] = tested on: bovine PBMC stimulated with ConA (Con A blasts); experiment: 3H-thymidine incorporation toxicity assay on ConA-stimulated uninfected bovine PBMC (CC50); conditions: read-out: CC50 (μM) Con A blasts; uninfected bovine PBMC stimulated with ConA, 48 h compound, 3H-thymidine incorporation
Method: as §1, §2, §3

[6] = uninfected bovine PBMC stimulated with ConA (Con A blasts), CC50 (μM) Con A blasts, uninfected bovine PBMC stimulated with ConA, 48 h compound, 3H-thymidine incorporation
[7] = Bos taurus, Lymphocyte, read-out: IC50 (μM) F100TpM, T. parva infected lymphocyte cell line, 48 h compound, 3H-thymidine incorporation
[8] = MMV Malaria Box sheet, ref MMV data sheets, read-out: EC50_nM
[9] = source StJude, ref ChEMBL_NTD, read-out: CHEMBL EC50
[10] = MMV Malaria Box data sheet, ref MMV data sheets
[11] = MMV Malaria Box data sheet, ref MMV data sheets, read-out: EC50_nM
[12] = source GNF, ref ChEMBL_NTD, read-out: CHEMBL EC50
[13] = source GSK, ref ChEMBL_NTD, read-out: CHEMBL EC50
[14] = ChEMBL-NTD value per source (GNF, GSK, StJude), several values in a cell follow the order of the sources, read-out: CHEMBL EC50
[15] = MMV Malaria Box sheet, ref MMV data sheets
[16] = read-out: IC50 (μM) F100TpM, T. parva infected lymphocyte cell line, 48 h compound, 3H-thymidine incorporation
[17] = MMV Malaria Box data sheet (supplement mmc2.xls), ref MMV data sheet
[18] = MMV Malaria Box data sheet (supplement mmc2.xls), ref MMV data sheet, read-out: EC50_nM
[19] = value(s) per source (GSK, GNF, StJude), separated by semicolon, ref ChEMBL-NTD, read-out: CHEMBL EC50

CC(C)(C)[C@H]1CC[C@H](CC2=C(O)C(=O)c3ccccc3C2=O)CC1 [Buparvaquone, reference compound]
CC50 at 48 h [1, 6]: > 10 µM | IC50 [2, 7]: 0.0042 µM | TI (CC50/IC50), therapeutic index [2]: >2380 | TI (CC50/IC50), therapeutic index ([2]; listed as buparvaquone): more than 2000

Oc1ccc(Br)cc1CN1CCN(Cc2cccc(F)c2)CC1 [MMV000356]
EC50 [3, 8]: 1030 nM | EC50 [3, 9]: 1400 nM | CC50 at 48 h [1]: 0.86 µM | IC50 ([2]; Bos taurus, Lymphocyte, read-out: IC50 (μM) F100TpM): 0.87 µM | TI (CC50/IC50), therapeutic index [2]: 0.99

CCCN(CCC)CC(O)COc1ccccc1C(=O)Nc1ccccc1 (centres unmarked) [MMV006455]
percent_inh @ 5 uM [3, 10]: 98% | EC50 [3, 11]: 196 nM | EC50 [3, 12]: 365 nM | EC50 [3, 13]: 799 nM | CC50 at 48 h [1, 6]: 0.9 µM | IC50 [2, 7]: 0.84 µM | TI (CC50/IC50), therapeutic index [2]: 1.07

COc1cc(-c2nc(-c3ccc(Sc4ccccc4)cc3)c(-c3ccccc3)[nH]2)cc(OC)c1O [MMV007273]
EC50 [3, 14]: 1280 nM | CC50 at 48 h [1, 6]: 0.06 µM | IC50 [2, 7]: 0.04 µM | TI (CC50/IC50), therapeutic index [2]: 1.5

Clc1ccc2c(N3CCCC3)ccnc2c1 [MMV007363]
percent_inh @ 5 uM [3, 15]: 97% | EC50 [3, 8]: 944 nM | EC50 [3, 12]: 283 nM | CC50 at 48 h [1, 6]: 1.09 µM | IC50 [2, 7]: 1.93 µM | TI (CC50/IC50), therapeutic index [2]: 0.56

COc1ccc(-c2cnc3ccc(N4CCCC4)nn23)cc1OC [MMV023985]
CC50 [4]: < 1 nM | TI (CC50/IC50), therapeutic index [2]: <0.001 | IC50 [2, 16]: 0.52 µM

CCOC(=O)c1cnc2c(CC)cccc2c1O [MMV498479]
EC50 [3, 14]: 1660 nM | CC50 at 48 h [1, 6]: 0.13 µM | IC50 [2, 7]: 0.05 µM | TI (CC50/IC50), therapeutic index [2]: 2.6

CCOc1cc(Cl)c(C(C)NC(=O)c2ccccc2)cc1OCC (centres unmarked) [MMV665800]
percent_inh @ 5 uM [3, 10]: 96% | EC50 [3, 11]: 1370 nM | EC50 [3, 13]: 875 nM | CC50 at 48 h [1, 6]: 0.53 µM | IC50 [2, 7]: 0.49 µM | TI (CC50/IC50), therapeutic index [2]: 1.08

CCCc1cc(O)c2c3c(c(=O)oc2c1)CN(C)CC3 [MMV665841]
percent_inh @ 5 uM [3, 10]: 97% | EC50 [3, 11]: 146 nM | EC50 [3, 12]: 554 nM | EC50 [3, 13]: 873 nM | CC50 at 48 h [1, 6]: 0.66 µM | IC50 [2, 7]: 0.36 µM | TI (CC50/IC50), therapeutic index [2]: 1.83

CCn1c(SCC(=O)Nc2cc(C(F)(F)F)ccc2Cl)nc2ccccc2c1=O [MMV666103]
percent_inh @ 5 uM [3, 10]: 91% | EC50 [3, 11]: 1000 nM | EC50 [3, 13]: 397 nM

COCCN(C(=O)Cc1cccs1)C(C(=O)NCc1ccc(OC)cc1)c1ccc(C(C)C)cc1 (centres unmarked) [MMV666105]
percent_inh @ 5 uM [3, 10]: 92% | EC50 [3, 11]: 1190 nM | EC50 [3, 13]: 845 nM

O=C(NC1CCCCC1)C(c1cccs1)N(CCc1ccccc1)C(=O)c1ccco1 (centres unmarked) [MMV666106]
EC50 [3, 14]: 1040 nM

O=C(CCc1ccco1)NC1CCN(CC2(c3ccc(Cl)cc3)CCC2)CC1 [MMV666108]
percent_inh @ 5 uM [3, 17]: 96% | EC50 [3, 18]: 1140 nM | EC50 [3, 19]: 1450 nM

CCOC(=O)C1(Cc2ccccc2)CCN(Cc2cccc(OC)c2O)CC1 [MMV666109]
percent_inh @ 5 uM [3, 15]: 95% | EC50 [3, 9]: 2290 nM

C=C(C)CCC(C)N1CCC(N2CCC(C(=O)NCCc3ccccc3)CC2)CC1 (centres unmarked) [MMV666110]
percent_inh @ 5 uM [3, 17]: 96% | EC50 [3, 18]: 1750 nM | EC50 [3, 19]: 4260 nM

Oc1ccccc1CN1CCC2(CCCN(Cc3ccccc3F)C2)C1 (centres unmarked) [MMV666116]
percent_inh @ 5 uM [3, 17]: 98% | EC50 [3, 18]: 548 nM | EC50 [3, 19]: 679 nM

CC(C)(C)c1ccc(C(=O)Nc2c3c(nn2-c2cccc(Cl)c2)CSC3)cc1 [MMV666123]
percent_inh @ 5 uM [3, 15]: 93% | EC50 [3, 9]: 15000 nM

CC1=C(CC(=O)c2cccc([N+](=O)[O-])c2)C(=O)c2ccccc2C1=O [MMV666125]
percent_inh @ 5 uM [3, 15]: 95% | EC50 [3, 8]: 381 nM | EC50 [3, 12]: 2840 nM

CSC1=NC(=Nc2c(C)cccc2C)C2(CCC(C(C)(C)C)CC2)N1c1ccc(Cl)cc1 (centres unmarked) [MMV666596]
percent_inh @ 5 uM [3, 10]: 96% | EC50 [3, 11]: 135 nM | EC50 [3, 12]: 1480 nM

CCCCCCc1cc2cc(-c3nc4ccccc4[nH]3)c(=Nc3ccccc3C)oc2cc1O [MMV666597]
EC50 [3, 14]: 2120 nM

O=c1nc(C=Cc2ccc(Br)cc2)oc2ccccc12 [MMV666599]
percent_inh @ 5 uM [3, 15]: 94% | EC50 [3, 13]: 1050 nM

CCOC(=O)c1c(C)n(-c2ccc(Cl)cc2)c2ccc(OC(=O)C=Cc3ccccc3)cc12 [MMV666600]
percent_inh @ 5 uM [3, 10]: 97% | EC50 [3, 11]: 216 nM | EC50 [3, 13]: 698 nM

CCOC(=O)C1=C(c2ccccc2)N=c2sc(=Cc3cc(C)n(-c4ccc(F)cc4)c3C)c(=O)n2C1c1cccc(OC)c1OC (centres unmarked) [MMV666601]
percent_inh @ 5 uM [3, 10]: 94% | EC50 [3, 11]: 154 nM | EC50 [3, 12]: 2320 nM

CCOC(=O)C1=C(C)N=c2sc(=Cc3ccccc3O)c(=O)n2C1c1ccc(OC)c2ccccc12 (centres unmarked) [MMV666604]
percent_inh @ 5 uM [3, 15]: 97% | EC50 [3, 8]: 1510 nM | EC50 [3, 13]: 1260 nM

O=[N+]([O-])c1ccc(C=NNc2nc3ccccc3[nH]2)cc1 [MMV666607]
percent_inh @ 5 uM [3, 10]: 99% | EC50 [3, 11]: 142 nM | EC50 [3, 12]: 818 nM | EC50 [3, 13]: 283 nM

COc1ccccc1C(=O)ON=C(N)Cc1cccc2ccccc12 [MMV666686]
EC50 [3, 14]: 352 nM

COc1cc(C(=O)ON=C(N)Cc2cccc3ccccc23)cc(OC)c1OC [MMV666687]
EC50 [3, 14]: 280 nM

Cc1cc(C=C2SC(=Nc3ccccc3)N(C3CCCC3)C2=O)c(C)n1-c1ccc(Cl)cc1 [MMV666688]
percent_inh @ 5 uM [3, 10]: 97% | EC50 [3, 11]: 263 nM | EC50 [3, 13]: 876 nM

COc1ccc(Nc2nc(NN=Cc3ccc(O)cc3)nc(Nc3ccc([N+](=O)[O-])cc3)n2)cc1 [MMV666689]
EC50 [3, 14]: 1120 nM

COc1ccc(C=C2SC(=N)N(c3ccccc3OC)C2=O)cc1 [MMV666691]
percent_inh @ 5 uM [3, 10]: 97% | EC50 [3, 11]: 168 nM | EC50 [3, 13]: 300 nM

CCCCCCc1cc2cc(-c3csc(C=Cc4ccccc4)n3)c(=O)oc2cc1O [MMV666692]
EC50 [3, 14]: 970 nM

COc1cccc(C=Cc2nc(=O)c3ccccc3o2)c1OC [MMV666693]
percent_inh @ 5 uM [3, 10]: 96% | EC50 [3, 11]: 23.8 nM | EC50 [3, 13]: 64.4 nM

CN(C)c1ccc(N2C(N)=NC(N)=NC2(C)C)cc1 [MMV667487]
percent_inh @ 2 uM ([3]; 2 uM, MMV Malaria Box sheet, ref MMV data sheets): 95% | EC50 [3, 12]: 18.8 nM | EC50 [3, 9]: 72.8 nM

COc1ccc(CCn2c(=N)c(C(=O)NCc3cccnc3)cc3c(=O)n4cccc(C)c4nc32)cc1 [MMV667488]
EC50 [3, 14]: 1400 nM

CNC(=O)c1nn(C)c2c1C(C)(C)Cc1cnc(Nc3ccc(N4CCN(C)CC4)cc3)nc1-2 [MMV676602]
CC50 [5]: 0.3 µM | TI (CC50/IC50), therapeutic index [2]: 0.86 | IC50 [2, 16]: 0.35 µM

Cc1nn(C)c(C)c1NS(=O)(=O)c1c(Cl)cc(-c2ccnc(N3CCNCC3)c2)cc1Cl [MMV688180]
CC50 [5]: < 0.001 µM | TI (CC50/IC50), therapeutic index [2]: <0.001 | IC50 [2, 16]: 0.97 µM

O=C(Nc1ccc(F)c(-c2nc3ncc(-c4ccccc4)cc3[nH]2)c1)N1CCCC1 [MMV688372]
IC50 [2, 16]: 0.61 µM

CC(=O)OCC1OC([S-])C(OC(C)=O)C(OC(C)=O)C1OC(C)=O.CCP(CC)CC.[Au+] (centres unmarked) [MMV688978, Auranofin, reference compound]
CC50 [5]: 0.4 µM | TI (CC50/IC50), therapeutic index [2]: 0.74 | IC50 [2, 16]: 0.54 µM | IC50 ([2]; read-out: IC50 (μM) F100TpM, T. parva infected lymphocyte cell line, 48 h compound, 3H-thymidine incorporation, listed as auranofin): < 1 µM

Reference: paper PMC6376154 (International Journal for Parasitology: Drugs and Drug …, 2019)
